This note sets out measurements from patent US7553972B2, “Benzamide inhibitors of the P2X7 receptor” (Pfizer, Inc., priority 2003, dated 2009).

This assay concerns the target T1, P2X7 receptor (Homo sapiens, UniProt Q99572).
T1 construct: endogenous in cells
T1 sequence (Q99572 1-595): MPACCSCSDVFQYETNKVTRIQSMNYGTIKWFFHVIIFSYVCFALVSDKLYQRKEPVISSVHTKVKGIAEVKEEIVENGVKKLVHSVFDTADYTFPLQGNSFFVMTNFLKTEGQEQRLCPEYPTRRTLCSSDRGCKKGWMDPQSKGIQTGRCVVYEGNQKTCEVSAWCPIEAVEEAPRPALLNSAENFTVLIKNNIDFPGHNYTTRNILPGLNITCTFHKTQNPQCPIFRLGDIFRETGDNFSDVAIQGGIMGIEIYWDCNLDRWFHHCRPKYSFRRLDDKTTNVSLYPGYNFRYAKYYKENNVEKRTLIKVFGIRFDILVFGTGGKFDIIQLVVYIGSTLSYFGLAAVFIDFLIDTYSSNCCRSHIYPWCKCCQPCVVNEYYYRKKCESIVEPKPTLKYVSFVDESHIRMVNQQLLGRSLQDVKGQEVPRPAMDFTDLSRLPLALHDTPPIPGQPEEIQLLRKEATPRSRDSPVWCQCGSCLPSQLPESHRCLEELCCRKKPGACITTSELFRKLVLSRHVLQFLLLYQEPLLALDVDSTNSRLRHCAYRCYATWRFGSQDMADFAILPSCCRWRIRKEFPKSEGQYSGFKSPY
The assay can be described thus: Inhibition of ATP-stimulated IL-1β release from LPS-activated blood monocytes (P2X7 antagonist activity, ELISA readout). The note with it: monocytes from normal volunteers, 10 ng/ml LPS 2 h, compound 30 min, 2 mM ATP 3 h, IL-1β by ELISA, triplicate wells; read-out: IC50 (inhibit 50% of the stimulation of the release of IL-1β from monocytes by ATP). The format is cell-based. The protocol: In like manner, the compounds of the invention can be tested for antagonist activity at the P2X7 receptor using the cytokine IL-1β as the readout. Blood collected from normal volunteers in the presence of heparin is fractionated using lymphocyte separation medium obtained from Organon Technica (Westchester, Pa.). […] The resulting cell pellet was suspended in 10 ml of Maintenance Medium and a cell count was performed. In an average experiment, 2×10^5 mononuclear cells are seeded into each well of 96-well plates in a total volume of 0.1 ml. Monocytes are allowed to adhere for 2 hours, after which the supernatants are discarded and the attached cells are rinsed twice and then incubated in Maintenance Medium overnight at 37° C. in a 5% CO2 environment.
The cultured monocytes can be activated with 10 ng/ml LPS (E. coli serotype 055:B5; Sigma Chemicals, St. Louis, Mo.). […] ATP then is introduced (from a 100 mM stock solution, pH 7) to achieve a final concentration of 2 mM and the plate is incubated at 37° C. for an additional 3 hours. Media were harvested and clarified by centrifugation, and their IL-1[…] content was determined by ELISA (R&D Systems; Minneapolis, Minn.).
Blood was collected from normal volunteers in the presence of heparin, and was fractionated using lymphocyte separation medium obtained from Organon Technica (Westchester, Pa.). […] The resulting cell pellet was suspended in 10 ml of Maintenance Medium and a cell count was performed. Approximately, 2×10^5 mononuclear cells were seeded into each well of 96-well plates in a total volume of 0.1 ml. Monocytes were allowed to adhere for 2 hours, after which the supernatants were discarded and the attached cells were rinsed twice and then incubated in Maintenance Medium overnight at 37° C. in a 5% CO2 environment.
The cultured monocytes were activated with 10 ng/ml LPS (E. coli serotype 055:B5; Sigma Chemicals, St. Louis, Mo.). […] ATP then was introduced (from a 100 mM stock solution, pH 7) to achieve a final concentration of 2 mM and the plate was incubated at 37° C. for an additional 3 hours. Media were harvested and clarified by centrifugation, and their IL-1β content was determined by ELISA (R&D Systems; Minneapolis, Minn.).
On the technique in general: An ELISA detects its analyte on a solid surface through an enzyme-linked reagent.
For orientation: IC50 means the concentration that gives 50% inhibition. Consider `O=C(NCC1(O)CCCCCC1)c1cc(-c2cn[nH]n2)ccc1Cl` [Example 56, 2-Chloro-N-(1-hydroxy-cycloheptylmethyl)-5-(2H-[1,2,3]triazol-4-yl)-benzamide], for which the half-inhibitory concentration (IC50) stood at 480 nM.
The result for `Cc1cc(-c2ccc(Cl)c(C(=O)NCC3(O)CCCC(C)(C)C3)c2)on1` (centres unmarked) [Example 14, 2-Chloro-N-(1-hydroxy-3,3-dimethyl-cyclohexylmethyl)-5-(3-methyl-isoxazol-5-yl)-benzamide] reads 81 nM.
The result for `N#CCn1ccc(-c2ccc(Cl)c(C(=O)NCC3(O)CCCCCC3)c2)n1` [Example 34, 2-Chloro-5-(1-cyanomethyl-1H-pyrazol-3-yl)-N-(1-hydroxy-cycloheptylmethyl)-benzamide] reads 193 nM; that for `CNC(=O)CNC(=O)Cn1nc(-c2ccc(Cl)c(C(=O)NCC3(O)CCCCCC3)c2)cc1C` [Example 49, 2-Chloro-N-(1-hydroxy-cycloheptylmethyl)-5-{5-methyl-1-[(methylcarbamoylmethyl-carbamoyl)-methyl]-1H-pyrazol-3-yl}-benzamide], 5 nM.
As for `O=C(NCC1(O)CCCCCC1)c1cc(-c2cc[nH]n2)ccc1Cl` [Example 19, 2-Chloro-N-(1-hydroxy-cycloheptylmethyl)-5-(1H-pyrazol-3-yl)-benzamide], the concentration for half-maximal inhibition (IC50) was determined as 180 nM.
In the case of `COC[C@H](O)Cn1nc(-c2ccc(Cl)c(C(=O)NCC3(O)CCCCCC3)c2)cc1C` (stereo in doubt) [Example 39, 2-Chloro-N-(1-hydroxy-cycloheptylmethyl)-5-[1-(2-hydroxy-3-methoxy-propyl)-5-methyl-1H-pyrazol-3-yl]-benzamide] it was 8 nM.
The result for `Cc1cc(-c2ccc(Cl)c(C(=O)NCC3(O)CCCCCC3)c2)nn1CC(=O)Nc1ncccn1` [Example 52, 2-Chloro-N-(1-hydroxy-cycloheptylmethyl)-5-[5-methyl-1-(pyrimidin-2-ylcarbamoylmethyl)-1H-pyrazol-3-yl]-benzamide] reads 8 nM.
The result for `COc1ccc(-c2ccc(Cl)c(C(=O)NCCc3ccccc3Cl)c2)nn1` [Example 8, 2-Chloro-N-[2-(2-chloro-phenyl)-ethyl]-5-(6-methoxy-pyridazin-3-yl)-benzamide] reads 525 nM; that for `Cc1cc(-c2ccc(Cl)c(C(=O)NCC3(O)CCCCCC3)c2)nn1CC(N)=O` [Example 37, 5-(1-Carbamoylmethyl-5-methyl-1H-pyrazol-3-yl)-2-chloro-N-(1-hydroxy-cycloheptylmethyl)-benzamide], 18 nM; that for `Cc1ccc(C2(CNC(=O)c3cc(-c4cc[nH]n4)ccc3Cl)CCCCC2)cc1` [Example 17, 2-Chloro-5-(1H-pyrazol-3-yl)-N-(1-p-tolyl-cyclohexylmethyl)-benzamide], 18 nM.
On to `Cc1cc(-c2ccc(Cl)c(C(=O)NCC3(O)CCCCCC3)c2)nn1CC(=O)NCCN(C)C` [Example 47, 2-Chloro-5-{1-[(2-dimethylamino-ethylcarbamoyl)-methyl]-5-methyl-1H-pyrazol-3-yl}-N-(1-hydroxy-cycloheptylmethyl)-benzamide], for which the half-maximal inhibitory concentration (IC50) is 3.5 nM.
As to `CC(C)(O)Cn1ccc(-c2ccc(Cl)c(C(=O)NCC3(O)CCCCCC3)c2)n1` [Example 41, 2-Chloro-N-(1-hydroxy-cycloheptylmethyl)-5-[1-(2-hydroxy-2-methyl-propyl)-1H-pyrazol-3-yl]-benzamide], the IC50 was determined as 30 nM.
In the case of `Cc1ccc(C2(CNC(=O)c3cc(-c4ccc(C)nc4)ccc3Cl)CCCCC2)cc1` [Example 1, 2-Chloro-5-(6-methyl-pyridin-3-yl)-N-(1-p-tolyl-cyclohexylmethyl)-benzamide] it was 29 nM.
On to `Cc1cc(-c2ccc(Cl)c(C(=O)NCC3(O)CCCCCC3)c2)nn1CC(=O)N1CCCC1` [Example 46, 2-Chloro-N-(1-hydroxy-cycloheptylmethyl)-5-[5-methyl-1-(2-oxo-2-pyrrolidin-1-yl-ethyl)-1H-pyrazol-3-yl]-benzamide], for which the IC50 came out at 22 nM.
